Values of other authors, collected in patent US12213954B2, “Colchicine solution” (PHARMA-DATA RESEARCH AND D[…] MEMBER S.A., priority 2021, dated 2025).

Conditions: pure colchicine

COc1cc2c(c(OC)c1OC)-c1ccc(OC)c(=O)cc1[C@@H](NC(C)=O)CC2 [colchicine, (S)—N-(5,6,7,9-tetrahydro-1,2,3,10-tetramethoxy-9-oxo-benzo[a]heptalene-7-yl)acetamide]
solubility in water, ethanol and chloroform (in words): well soluble
